Target: T1, Galectin-8 (Gal8-6FW) (Homo sapiens, UniProt O00214)
T1 sequence (O00214 1-317): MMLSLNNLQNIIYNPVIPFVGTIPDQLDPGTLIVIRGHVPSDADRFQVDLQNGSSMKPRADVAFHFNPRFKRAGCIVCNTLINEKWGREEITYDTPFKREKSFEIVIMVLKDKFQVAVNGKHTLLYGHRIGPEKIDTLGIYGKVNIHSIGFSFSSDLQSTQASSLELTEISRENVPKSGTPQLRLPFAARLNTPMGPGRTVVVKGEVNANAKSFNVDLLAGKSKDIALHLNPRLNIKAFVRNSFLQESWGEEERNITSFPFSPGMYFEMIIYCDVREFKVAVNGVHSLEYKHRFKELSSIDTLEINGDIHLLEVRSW
Assay: […] NMR titration
Type: binding

OC[C@H]1O[C@@H](O[C@H]2[C@H](O)[C@@H](O)C(O)O[C@@H]2CO)[C@H](O)[C@@H](O)[C@H]1O (stereo partly shown) [lactose]
19F NMR titration: Lactose binds to both domains of Gal8 with very similar and weak affinities

From PMC10107428 (Chemistry (Weinheim an Der Bergstrasse, Germany), 2022)
